Measurements reported in patent US20060079550A1, “Amino acid derivatives useful for the treatment of alzheimer's disease” (priority 2001, published 2006).
Where two headings read alike, the source gives them in different places.

Molecular target: aspartyl proteases, in particular, beta-secretase
Test: Ki of the compounds listed in Tables 1 and 2 (no method described)
Format: biochemical
[1] = Table 1, compounds of formula Ia, W is -(CH2)n-

Row | Compound | Ki [1] | Ki
1 | CC(C)CN([C@@H](CCCCNC(=O)CCc1cccc(N)c1)C(=O)O)S(=O)(=O)c1ccc(N)cc1 [Compound No. 118, Nα-isobutyl-Nα-(4-aminobenzenesulfonyl)-Nε-(3-aminodihydrocinnamoyl)-L-lysine] | 20.5 nM | 
2 | COc1ccc(CCC(=O)NCCCC[C@@H](C(=O)O)N(CC(C)C)S(=O)(=O)c2ccc(N)cc2)cc1 [Compound No. 120, Nα-isobutyl-Nα-(4-aminobenzenesulfonyl)-Nε-(4-methoxydihydrocinnamoyl)-L-lysine] | 12.4 nM | 
3 | CC(C)CN([C@@H](CCCCNC(=O)CCCc1ccccc1)C(=O)O)S(=O)(=O)c1ccc(N)cc1 [Compound No. 121, Nα-isobutyl-Nα-(4-aminobenzenesulfonyl)-Nε-(4-phenylbutanoyl)-L-lysine] | > 300 nM | 
4 | COC(=O)[C@H](CCCCNC(=O)OCC1c2ccccc2-c2ccccc21)N(CC(C)C)S(=O)(=O)c1ccc(C)cc1 [Compound No. 123, Nα-isobutyl-Nα-(4-methylbenzenesulfonyl)-Nε-(9-fluorenylmethoxycarbonyl)-L-lysine Methyl Ester] | > 300 nM | 
5 | Cc1ccc(S(=O)(=O)N(CC(C)C)[C@@H](CO)CCCCNC(=O)OCC2c3ccccc3-c3ccccc32)cc1 [Compound No. 124, (2R)-N-isobutyl-N-(4-methylbenzenesulfonylamino)-6-(9-fluorenylmethoxycarboxylamino)-1-hexanol] | 208 nM | 
6 | Cc1ccc(S(=O)(=O)N(CC(C)C)C(CCCCNC(=O)OCC2c3ccccc3-c3ccccc32)C(N)=O)cc1 [Compound No. 125, (2R,2S)-N-isobutyl-N-(4-methylbenzenesulfonylamino)-6-(9-fluorenylmethoxycarboxylamino)-1-hexanamide] | 107 nM | 
7 | Cc1ccc(S(=O)(=O)N(CC(C)C)[C@@H](CCCCNC(=O)CCc2ccc(O)cc2)C(=O)O)cc1 [Compound No. 126, Nα-isobutyl-Nα-(4-methylbenzenesulfonyl)-Nε-(4-hydroxydihydrocinnamoyl)-L-lysine] | > 300 nM | 
8 | Cc1ccc(S(=O)(=O)N(CC(C)C)C(CCCCNC(=O)OCC2c3ccccc3-c3ccccc32)C(=O)NO)cc1 [Compound No. 141, (2R,2S)-N-isobutyl-N-(4-methylbenzenesulfonylamino)-6-(9-fluorenylmethoxycarboxylamino)-1-hydroxylhexamide] | 245 nM | 
9 | CC(C)CN([C@@H](CCCCNC(=O)CSc1ccccc1)C(=O)O)S(=O)(=O)c1ccc([N+](=O)[O-])cc1 [Compound No. 154, Nα-isobutyl-Nα-(4-Tnitrobenzenesulfonyl)-Nε-phenylthioacetyl-L-lysine] | 10.2 nM | 
10 | CC(C)CN([C@@H](CCCCNC(=O)CCc1ccc2c(c1)OCO2)C(=O)O)S(=O)(=O)c1ccc(N)cc1 [Compound No. 155, Nα-isobutyl-Nα-(4-aminobenzenesulfonyl)-Nε-(3,4-methylenedioxydihydrocinnamoyl)-L-lysine] | 15.7 nM | 
11 | COc1cccc(CCC(=O)NCCCC[C@@H](C(=O)O)N(CC(C)C)S(=O)(=O)c2ccc(N)cc2)c1 [Compound No. 156, Nα-isobutyl-Nα-(4-aminobenzenesulfonyl)-Nε-(3-methoxydihydrocinnamoyl)-L-lysine] | 16.7 nM | 
12 | COc1ccccc1CCC(=O)NCCCC[C@@H](C(=O)O)N(CC(C)C)S(=O)(=O)c1ccc(N)cc1 [Compound No. 157, Nα-isobutyl-Nα-(4-aminobenzenesulfonyl)-Nε-(2-methoxydihydrocinnamoyl)-L-lysine] | 18.9 nM | 
13 | CC(C)CN([C@@H](CCCCNC(=O)COc1ccccc1)C(=O)O)S(=O)(=O)c1ccc([N+](=O)[O-])cc1 [Compound No. 160, Nα-isobutyl-Nα-(4-nitrobenzenesulfonyl)-Nε-phenoxyacetyl-L-lysine] | 24.5 nM | 
14 | COc1cccc(C=CC(=O)NCCCC[C@@H](C(=O)O)N(CC(C)C)S(=O)(=O)c2ccc([N+](=O)[O-])cc2)c1 [Compound No. 162, Nα-isobutyl-Nα-(4-nitrobenzenesulfonyl)-Nε-(3-methoxycinnamoyl)-L-lysine] | > 300 nM | 
15 | Cc1ccc(S(=O)(=O)N(CC(C)C)C(CNCCNC(=O)CCc2ccccc2)C(=O)O)cc1 [Compound No. 206, (2R,2S)-2-[N-isobutyl-N-(4-methylbenzenesulfonyl)]-3-[2′-(N′-dihydrocinnamoyl)ethylamino]-propionic Acid] |  | > 300 nM
16 | Cc1ccc(S(=O)(=O)N(CC(C)C)C(CCCCNC(=O)C2c3ccccc3-c3ccccc32)C(=O)O)cc1 (stereo not shown) [compound 83] | 105 nM | 
17 | Cc1ccc(S(=O)(=O)N(CC(C)C)[C@@H](CCCCNC(=O)CC2c3ccccc3-c3ccccc32)C(=O)O)cc1 [compound 84] | 89.7 nM | 
18 | Cc1ccc(S(=O)(=O)N(CC(C)C)[C@@H](CCCCNC(=O)C2c3ccccc3Oc3ccccc32)C(=O)O)cc1 [compound 85] | 14.5 nM | 
19 | Cc1ccc(S(=O)(=O)N(CC(C)C)[C@@H](CCCCNC(=O)C(c2ccccc2)c2ccccc2)C(=O)O)cc1 [compound 86] | 171 nM | 
20 | Cc1ccc(S(=O)(=O)N(CC(C)C)[C@@H](CCCCNC(=O)c2cc3ccccc3[nH]2)C(=O)O)cc1 [compound 88] | > 625 nM | 
21 | Cc1ccc(S(=O)(=O)N(CC(C)C)[C@@H](CCCCNC(=O)CCc2c[nH]c3ccccc23)C(=O)O)cc1 [compound 89] | 6.9 nM | 
22 | CC(C)CN([C@@H](CCCCNS(=O)(=O)c1ccc([N+](=O)[O-])cc1)C(=O)O)S(=O)(=O)c1ccc([N+](=O)[O-])cc1 [compound 116, Nα-isobutyl-Nα,Nε-di-(4-nitrobenzenesulfonyl)-L-lysine] | > 300 nM | 

Continued, in another order:

Row | Ki [1] | Compound | Ki
23 | 6.2 nM | COc1cccc(CCC(=O)NCCCC[C@@H](C(=O)O)N(CC(C)C)S(=O)(=O)c2ccc(N)cc2)c1OC [Compound No. 119, Nα-isobutyl-Nα-(4-aminobenzenesulfonyl)-Nε-(2,3-dimethoxydihydrocinnamoyl)-L-lysine] | 
24 | > 300 nM | CC(C)CN([C@@H](CCCCNC(=O)CCc1ccccc1N)C(=O)O)S(=O)(=O)c1ccc(N)cc1 [Compound No. 122, Nα-isobutyl-Nα-(4-aminobenzenesulfonyl)-Nε-(2-aminodihydrocinnamoyl)-L-lysine] | 
25 | 10100 nM | Cc1ccc(S(=O)(=O)NCCC[C@H](NC(=O)OCC2c3ccccc3-c3ccccc32)C(=O)O)cc1 [Compound No. 149, Nδ-(4-methylbenzenesulfonyl)-Nα-(9-fluorenylmethoxycarbonyl)-L-ornithine] | 
26 | > 300 nM | CC(C)CN([C@@H](CCCCNC(=O)CCc1ccccc1)C(=O)O)S(=O)(=O)c1ccc(N)cc1 [Compound No. 158, Nα-isobutyl-Nα-(4-aminobenzenesulfonyl)-Nε-dihydrocinnamoyl-L-lysine] | 
27 | > 300 nM | COc1ccccc1/C=C/C(=O)NCCCC[C@@H](C(=O)O)N(CC(C)C)S(=O)(=O)c1ccc([N+](=O)[O-])cc1 [Compound No. 161, Nα-isobutyl-Nα-(4-nitrobenzenesulfonyl)-Nε-(trans-2-methoxycinnamoyl)-L-lysine] | 
28 | > 300 nM | CC(C)CN([C@@H](CCCCNC(=O)C=Cc1ccc2c(c1)OCO2)C(=O)O)S(=O)(=O)c1ccc([N+](=O)[O-])cc1 [Compound No. 163, Nα-isobutyl-Nα-(4-nitrobenzenesulfonyl)-Nε-(3,4-methylenedioxycinnamoyl)-L-lysine] | 
29 | > 300 nM | CC(C)CN([C@@H](CCCCNC(=O)/C=C/c1cccnc1)C(=O)O)S(=O)(=O)c1ccc([N+](=O)[O-])cc1 [Compound No. 164, Nα-isobutyl-Nα-(4-nitrobenzenesulfonyl)-Nε-(trans-3-(3-pyridyl)acryloyl)-L-lysine] | 
30 | > 1250 nM | Cc1ccc(S(=O)(=O)N(CC(C)C)[C@@H](CCCCNC(=O)c2c[nH]c3ccccc23)C(=O)O)cc1 [compound 87] | 
31 | 747 nM | Cc1ccc(S(=O)(=O)N(CC(C)C)C(CCCCNC(=O)C=Cc2ccccc2)C(=O)O)cc1 (stereo not shown) [compound 90] | 
32 | 8 nM | Cc1ccc(S(=O)(=O)N(CC(C)C)[C@@H](CCCCNC(=O)CCc2ccccc2)C(=O)O)cc1 [compound 91] | 
33 | > 300 nM | COc1cccc(C=CC(=O)NCCCC[C@@H](C(=O)O)N(CC(C)C)S(=O)(=O)c2ccc([N+](=O)[O-])cc2)c1OC [compound 110, Nα-isobutyl-Nα-(4-nitrobenzenesulfonyl)-Nε-(2,3-dimethoxycinnamoyl)-L-lysine] | 
34 | 63000 nM | Nα-(9-fluorenylmethoxycarbonyl)-L-lysyl-Nα-(9-fluorenylmethoxy-carbonyl)-Nε-(2,4,6trimethylbenzenesulfonyl)-L-lysine [compound 26] | 
